We go through six molecules from patent US20220023381A1, “VDAC INHIBITORS FOR TREATING AUTOIMMUNE DISEASES” (NATIONAL INSTITUTE FOR BIOTECHNOLOGY IN THE NEGEV LTD., priority 2018, published 2022).

One assay deals with 143B cells. The assay can be described thus: Quantification of fimtDNA (free intra-mtDNA fragments). It is filed as cell-based. The protocol:
For the quantification of fimtDNA release, 143B cells were resuspended in mitochondrial isolation buffer and subsequently homogenized 30 times with pestle B (small clearance). The homogenized samples were centrifuged at 1,000 g for 10 min at 4° C. The supernatant was transferred to a new tube and centrifuged at 1,000 g for 5 min at 4° C., and the mitochondrial pellet was collected after the centrifugation of the final supernatant at 11,500 g for 10 min at 4° C. Isolated mitochondria were resuspended in 50 μl CSK buffer containing 10 mM PIPES pH 6.8, 300 mM sucrose, 100 mM NaCl, 3 mM MgCl2, 1 mM EGTA, and 0.05% Triton X-100, for 5 min on ice, and the supernatant (fimtDNA) and CSK-pellet fractions were collected after centrifugation at 17,000 g for 30 min at 4° C. A 1:20 dilution of CSK-sup was used for real-time PCR with fimtDNA primers in each reaction. The primers used were as follow (5′-3′): hfimtNDA forward (SEQ ID NO:70), and reverse (SEQ ID NO:71). CSK-pellet was resuspended in 100 μl lysis buffer containing 20 mM EDTA and proteinase K and incubated at 56° C. overnight. The digested pellet was diluted with water (1:20 to 1:100) and heated at 95° C. for 20 min to inactivate proteinase K, and the CSK-pellet fraction was used for real-time PCR in each reaction. The fimtDNA in CSK-sup was normalized to the mtDNA in CSK-pellet.

The test system of the next assay is LMTK-1 (WT) cells. The assay can be described thus: Ifi44 expression in LMTK-1 (WT) cells. It is filed as cell-based. The note with it: 100 μM DIDS. The method, then: (§1) The following mouse embryonic fibroblasts (MEFs) were used: VDAC1/3^−/− (MEFs) and Bak/Bax^−/− MEFs with the respective WT counterparts; WT and cGAS^−/− MEFs; WT and IRF3/IRF7^−/− MEFs; and WT and MICU1^−/− MEFs. All MEFs were grown in complete Dulbecco's modified Eagle's medium (DMEM, Corning) supplemented with 10% fetal bovine serum (FBS, Sigma-Aldrich) and 1% penicillin and streptomycin (antibiotics, Gibco) at 37° C. with 5% CO2. LMTK-1 cells were grown in complete RPMI 1640 medium (Gibco) supplemented with 10% FBS and antibiotics. The LMTK^−-derived cell line lacking mtDNA (ρ^o), LMEB-4, was grown in LMTK-1 growth medium supplemented with uridine (50 μg/ml, Sigma-Aldrich) and sodium pyruvate (1 mM, Gibco). WT (ρ^o) and EndoG^−/− (ρ^o) MEFs were generated by incubation with ethidium bromide (Invitrogen) in complete DMEM supplemented with 15% FBS, antibiotics, uridine (50 μg/ml), and pyruvate (1 mM) for 5 months.
(§2) Total RNA was extracted using RNeasy Plus Mini Kit (Qiagen) according to the manufacturer's instructions. […] GAPDH was used as an internal standard of mRNA expression, and the ratio of the target gene expression to GAPDH expression was calculated using LightCycler 96 Instrument software (Roche). The quality of real-time RT-PCR results was evaluated based on the melting temperature (Tm) of a DNA fragment and melting curve analysis.

In assay [1] the test system is mitochondria from MICU1−/− MEFs. The assay can be described thus: mtDNA release from isolated mitochondria of MICU1−/− MEFs. The note with it: buffer lacking Ca2+, with or without DIDS. Details: species or system mouse. The protocol:
Therefore, it was postulated that VDAC may be increasing mtDNA release in living cells merely by increasing mitochondrial Ca^2+ and promoting PTP formation. To examine this possibility, mitochondria from MICU1^−/− MEFs, which already have elevated Ca^2+ and ROS levels (FIG. 6F), were isolated and incubated in a buffer lacking Ca^2+ either with or without DIDS.

The subject of the next assay is LMEB-4 (ρ0) cells. Put plainly: Ifi44 expression in LMEB-4 (ρ0) cells lacking mtDNA. It is filed as cell-based. Particulars: 100 μM DIDS. The method, then: as §1, §2
For assay [2], the system named is EndoG−/− MEFs. Put plainly: ISG expression in EndoG−/− MEFs (real-time PCR / western blot). It is filed as cell-based, mouse.
Protocol: Total RNA was extracted using RNeasy Plus Mini Kit (Qiagen) according to the manufacturer's instructions. The first-strand cDNA was synthesized from 2 μg purified mRNA using Accupower RT PreMix (BioNeer). The reaction mixtures were incubated at 42° C. for 60 min and 94° C. for 5 min. Real-time RT-PCR was performed using the LightCycler 96 system (Roche Life Science) with SYBR Green master mix (Roche). The primers used were as follow (5′-3′): EndoG forward (SEQ ID NO:36), and reverse (SEQ ID NO:37); Cxcl10 forward (SEQ ID NO:38), and reverse (SEQ ID NO:39); GAPDH forward (SEQ ID NO:40), and reverse (SEQ ID NO:41); Ifi44 forward (SEQ ID NO:42), and reverse (SEQ ID NO:43); Ifit1 forward (SEQ ID NO:44), and reverse (SEQ ID NO:45); Ifit3 forward (SEQ ID NO:46), and reverse (SEQ ID NO:47); IFNα4 forward (SEQ ID NO:48), and reverse (SEQ ID NO:49); IFNβ forward (SEQ ID NO:50), and reverse (SEQ ID NO:51); Iigp1 forward (SEQ ID NO:52), and reverse (SEQ ID NO:53); ISG15 forward (SEQ ID NO:54), and reverse (SEQ ID NO:55); Oasl2 forward (SEQ ID NO:56), and reverse (SEQ ID NO:57); Rsad2 forward (SEQ ID NO:58), and reverse (SEQ ID NO:59); USP18 forward (SEQ ID NO:60), and reverse (SEQ ID NO:61); VDAC1 forward (SEQ ID NO:62), and reverse (SEQ ID NO:63). GAPDH was used as an internal standard of mRNA expression, and the ratio of the target gene expression to GAPDH expression was calculated using LightCycler 96 Instrument software (Roche). The quality of real-time RT-PCR results was evaluated based on the melting temperature (Tm) of a DNA fragment and melting curve analysis.
The subject of another assay is MICU1−/− MEFs. The assay can be described thus: ISG induction in MICU1−/− MEFs. It is filed as cell-based, mouse. Particulars: treatment with DIDS. The method, then: as §1, §2
In a further assay the test system is TFAM^KD MEFs. Put plainly: ISG expression in TFAM KD MEFs. It is filed as cell-based, mouse. The method, then: as §1, with “months. […]” for “months.”
Total RNA was extracted using RNeasy Plus Mini Kit (Qiagen) according to the manufacturer's instructions. […] GAPDH was used as an internal standard of mRNA expression, and the ratio of the target gene expression to GAPDH expression was calculated using LightCycler 96 Instrument software (Roche). The quality of real-time RT-PCR results was evaluated based on the melting temperature (Tm) of a DNA fragment and melting curve analysis. […]

Another assay concerns mtDNA (120 bp). The assay can be described thus: mtDNA-peptide binding (pull-down) assay. The arrangement: species or system mouse. The note with it: biotinylated peptide, Streptavidin Dynabeads. The source says: C-terminal biotinylated peptides corresponding to amino acid residues from 1 to 26 of mouse VDAC1 (SEQ ID NO:1) and a mutant peptide (SEQ ID NO:72) with acetylation (N-terminus) and amidation (C-terminus) were synthesized and purified by Genscript (Piscataway, N.J., USA). Mitochondrial DNA was amplified using PCR with mtDNA specific primer of the D-loop region. The primers used were as follow (5′-3′): mtDNA 120 bp forward (SEQ ID NO:73), and reverse (SEQ ID NO:74). Purified mtDNA (120 bp) was incubated rotating end-over-end with peptides and Streptavidin Dynabeads (Invitrogen) for 18 h at 4° C. The peptides were captured by the Streptavidin Dynabeads, and unbound peptides and free mtDNA were removed by extensive washing with PBS. The samples were treated with proteinase K for 30 min at 60° C., and the mtDNA in the supernatant was purified with QIAquick Nucleotide Removal Kit (Qiagen). The purified mtDNA was quantified using real-time RT-PCR with the D-loop3 primers.

In the next assay the test system is VDAC1/3−/− MEFs. Put plainly: ISG expression in VDAC1/3−/− MEFs. It is filed as cell-based, mouse. The note with it: treatment with Ca2+ chelator BAPTA. The method, then:
as §1, §2

Assay [3] deals with EndoG−/− MEFs. Put plainly: ROS levels in EndoG−/− MEFs. It is filed as cell-based, mouse. Particulars: Mito-TEMPO (10 μM), 3 days. The protocol:
Cellular cGAMP levels were measured by LC/MS (Agilent Technologies) using 5% perchloric acid extracts of WT and EndoG^−/− MEFs. Intracellular ROS production in MEFs was measured using the oxidative stress indicator CM-H2DCFDA (Invitrogen) with flow cytometry (FACS). Mitochondrial ROS in MEFs was evaluated using the mitochondrial superoxide indicator MitoSOX (Invitrogen) with a confocal microscope (LSM880, Zeiss, and the fluorescence intensity was measured using Zen software (Zeiss). To quantify mitochondrial ROS in human PBMCs, the cells were obtained from heparinized blood using a Ficoll-Paque gradient. The cells were washed with PBS, resuspended in RPMI 1640 medium, and transferred to 96-well plates. Subsequently, the cells were stimulated with calcium ionophore A23187 (25 μM), VBIT-4 (5 μM), and MitoSOX (2 μM) (Life Technologies). After 1 h at 37° C., the fluorescence was measured at 510/595 nm using a microplate reader (Synergy HTX; BIOTEK). Cells without dye were used as the blank control.

The mark [4] stands for this setting: DIDS (100 μM), real-time PCR and western blot.
Where [5] appears, read: treatment with Ca2+ chelator BAPTA.

No end group written: not given here.

As for `CO[C@H]1C[C@@H]2CC[C@@H](C)[C@@](O)(O2)C(=O)C(=O)N2CCCC[C@H]2C(=O)O[C@H]([C@H](C)C[C@@H]2CC[C@@H](OCCO)[C@H](OC)C2)CC(=O)[C@H](C)/C=C(\C)[C@@H](O)[C@@H](OC)C(=O)[C@H](C)C[C@H](C)/C=C/C=C/C=C/1C` [everolimus], the fimtDNA entry with 143B cells (100 nM everolimus) is “decreased”.
Regarding `O=S(=O)(O)c1cc(N=C=S)ccc1C=Cc1ccc(N=C=S)cc1S(=O)(=O)O` [DIDS, 4,4′-Diisothiocyanatostilbene-2,2′-disulfonate], the “ISG (Ifi44) expression” value is recorded as “inhibited” with LMTK-1 (WT) cells and “not” with LMEB-4 (ρ0) cells. Besides, in [1], the “mtDNA released during incubation” value was “decreased in a concentration-dependent manner”. Further, the ISG expression entry in the assay on EndoG−/− MEFs [2] (setting [4]) and in the assay on TFAM^KD MEFs (setting [4]) was “inhibited” throughout. Also, the ISG induction entry in the assay on MICU1−/− MEFs is given as “abrogated”.
Turning to “26 amino acid VDAC1 N-terminal peptide: C-terminal biotinylated peptide corresponding to amino acid residues 1 to 26 of mouse VDAC1 (MAVPPTYADLGKSARDVFTKGYGFGL-biotin)”, in the assay on mtDNA (120 bp), the “pull-down of mtDNA fragment” value was “pulled-down the mtDNA fragment in dose-dependent manner”.
As for `O=C(O)CN(CC(=O)O)c1ccccc1OCCOc1ccccc1N(CC(=O)O)CC(=O)O` [BAPTA], the ISG expression entry in the assay on EndoG−/− MEFs [2] (setting [5]) is “decreased”; in the assay on VDAC1/3−/− MEFs, “not”; with TFAM^KD MEFs (setting [5]) it was “decreased”.
For the molecule “VDAC1 N-terminal mutant peptide: VDAC1 N-terminal peptide in which K12, R15, K20 were changed to Ala (MAVPPTYADLGASAADVFTAGYGFGL)”, in the assay on mtDNA (120 bp), the “pull-down of mtDNA fragment” value is reported as “not”.
For `CC1(C)CC(NC(=O)C[P+](c2ccccc2)(c2ccccc2)c2ccccc2)CC(C)(C)N1[O]` [mito-TEMPO], in the assay on 143B cells (50 nM mito-TEMPO), the fimtDNA result is given as “decreased”. Moreover, the mROS result with EndoG−/− MEFs [3] is recorded as “reduced”. In the assay on EndoG−/− MEFs [2] (Mito-TEMPO (10 μM), 3 days), the ISG expression result is “reduced”.
